Source: patent publication US11926812B2, “Pressure-driven, adjustable throughput fluidics for tissue and cell perifusions” (EnTox Sciences, Inc., priority 2017, dated 2024)

Test system: liver slices
Assay: Effect of acetaminophen on liver oxygen consumption rate (OCR) in microperifusion prototype
Type: cell-based, rat
Conditions: two 1 mg liver slices per channel, after about three hours baseline, triplicate channels

## CC(=O)Nc1ccc(O)cc1 [acetaminophen]
6 mM acetaminophen
  OCR lowered: 40%
15 mM acetaminophen
  OCR lowered: 60%
